ChEMBL document CHEMBL2331167, “Inhibitory effect of novel somatostatin peptide analogues on human cancer cell growth based on the selective inhibition of DNA polymerase β” (Bioorg Med Chem, 2013)
Active and inactive are the calls of the source. The rule behind the calls is not given here.

Tests used:
[1] = Cytotoxicity against human dermal fibroblasts; conditions: hdf
HCT-116 [2] = test: Cytotoxicity against p53 -/- human HCT116 cells assessed as growth inhibition incubated for 24 hrs by WST-1 assay; assay type: functional; conditions: HCT-116, 24 h, read-out: LD50 (the source's name)
HCT-116 [3] = test: Cytotoxicity against MMS-induced p53 -/- human HCT116 cells assessed as reduction in clonogenic survival at 13.7 uM incubated for 24 hrs by WST-1 assay relative to control; assay type: functional
[4] = Inhibition of calf DNA polymerase alpha using poly(dA)/oligo(dT)18 (A/T, 2/1)/dTTP DNA template-primer substrate measured at 37 degC for 60 mins; design: species or system Bos taurus
HCT-116 [5] = test: Induction of apoptosis in p53 -/- human HCT116 cells assessed as DNA fragmentation at 13.7 uM incubated for 24 hrs by agarose gel electrophoresis; assay type: functional, cell-based
[6] = Inhibition of human DNA polymerase epsilon using poly(dA)/oligo(dT)18 (A/T, 2/1)/dTTP DNA template-primer substrate measured at 37 degC for 60 mins
[7] = target: DNA-directed DNA/RNA polymerase mu (Homo sapiens, UniProt Q9NP87); test: Inhibition of human DNA polymerase mu using poly(dA)/oligo(dT)18 (A/T, 2/1)/dTTP DNA template-primer substrate measured at 37 degC for 60 mins
[8] = target: DNA nucleotidylexotransferase (Bos taurus, UniProt P06526); test: Inhibition of calf TdT polymerase measured at 37 degC for 60 mins
HCT-116 [9] = test: Cytotoxicity against MMS-induced p53 +/+ human HCT116 cells assessed as reduction in clonogenic survival at 13.2 uM incubated for 24 hrs by WST-1 assay relative to control; assay type: functional
HCT-116 [10] = test: Cytotoxicity against p53 +/+ human HCT116 cells assessed as growth inhibition at 200 uM incubated for 24 hrs by WST-1 assay; assay type: functional, cell-based
DNA polymerase lambda = target: T1, DNA polymerase lambda (Homo sapiens, UniProt Q9UGP5); test: Inhibition of human DNA polymerase lambda using poly(dA)/oligo(dT)18 (A/T, 2/1)/dTTP DNA template-primer substrate measured at 37 degC for 60 mins
T1 sequence (Q9UGP5 whole entry): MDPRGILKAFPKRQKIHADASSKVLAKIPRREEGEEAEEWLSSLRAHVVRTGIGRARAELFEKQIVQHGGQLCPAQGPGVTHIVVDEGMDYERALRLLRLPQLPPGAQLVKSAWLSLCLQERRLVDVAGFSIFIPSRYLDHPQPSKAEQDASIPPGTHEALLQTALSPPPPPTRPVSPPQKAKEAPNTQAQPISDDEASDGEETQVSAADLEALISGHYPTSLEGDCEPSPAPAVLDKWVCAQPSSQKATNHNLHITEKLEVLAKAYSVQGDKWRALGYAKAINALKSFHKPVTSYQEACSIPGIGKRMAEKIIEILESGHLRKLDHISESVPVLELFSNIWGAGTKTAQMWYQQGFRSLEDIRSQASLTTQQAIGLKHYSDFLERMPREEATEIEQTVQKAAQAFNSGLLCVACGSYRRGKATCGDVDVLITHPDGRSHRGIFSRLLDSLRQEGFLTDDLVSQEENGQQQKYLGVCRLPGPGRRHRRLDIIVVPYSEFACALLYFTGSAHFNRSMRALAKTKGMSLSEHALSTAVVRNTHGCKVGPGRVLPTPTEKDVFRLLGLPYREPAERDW

DNA polymerase beta = DNA polymerase beta (Rattus norvegicus, UniProt P06766); test: Inhibition of rat DNA polymerase beta using poly(dA)/oligo(dT)18 (A/T, 2/1)/dTTP DNA template-primer substrate measured at 37 degC for 60 mins
DNA polymerase kappa = target: T2, DNA polymerase kappa (Homo sapiens, UniProt Q9UBT6); test: Inhibition of human DNA polymerase kappa using poly(dA)/oligo(dT)18 (A/T, 2/1)/dTTP DNA template-primer substrate measured at 37 degC for 60 mins
T2 sequence (Q9UBT6 whole entry): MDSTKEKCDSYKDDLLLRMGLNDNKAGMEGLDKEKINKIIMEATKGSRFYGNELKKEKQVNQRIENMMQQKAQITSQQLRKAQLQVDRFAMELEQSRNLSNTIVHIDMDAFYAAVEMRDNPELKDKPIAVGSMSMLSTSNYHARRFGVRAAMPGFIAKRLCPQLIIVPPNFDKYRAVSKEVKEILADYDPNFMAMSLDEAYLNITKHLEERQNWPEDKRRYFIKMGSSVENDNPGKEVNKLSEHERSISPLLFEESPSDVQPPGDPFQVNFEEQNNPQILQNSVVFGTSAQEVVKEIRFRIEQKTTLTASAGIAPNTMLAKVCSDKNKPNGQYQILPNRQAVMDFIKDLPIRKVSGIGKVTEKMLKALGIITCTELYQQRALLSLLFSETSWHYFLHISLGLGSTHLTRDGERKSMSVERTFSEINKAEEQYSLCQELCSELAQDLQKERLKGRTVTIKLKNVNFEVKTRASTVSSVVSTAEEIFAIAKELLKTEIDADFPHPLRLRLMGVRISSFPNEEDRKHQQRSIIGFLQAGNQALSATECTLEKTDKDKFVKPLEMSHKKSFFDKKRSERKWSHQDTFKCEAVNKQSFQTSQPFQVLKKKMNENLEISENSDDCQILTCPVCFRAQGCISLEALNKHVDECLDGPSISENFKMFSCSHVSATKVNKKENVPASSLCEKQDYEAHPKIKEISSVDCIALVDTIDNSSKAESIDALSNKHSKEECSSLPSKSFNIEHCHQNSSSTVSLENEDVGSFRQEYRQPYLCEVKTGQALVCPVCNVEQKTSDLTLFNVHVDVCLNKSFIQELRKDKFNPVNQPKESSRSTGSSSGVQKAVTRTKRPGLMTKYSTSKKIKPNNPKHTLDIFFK

HCT-116 [11] = test: Induction of apoptosis in p53 -/- human HCT116 cells assessed as apoptotic cells at 13.7 uM incubated for 24 hrs by TUNEL analysis; assay type: functional, cell-based
HCT-116 [12] = test: Cytotoxicity against p53 -/- human HCT116 cells assessed as growth inhibition at 200 uM incubated for 24 hrs by WST-1 assay; assay type: functional, cell-based

Chain of DNA nucleotidylexotransferase (P06526 whole entry): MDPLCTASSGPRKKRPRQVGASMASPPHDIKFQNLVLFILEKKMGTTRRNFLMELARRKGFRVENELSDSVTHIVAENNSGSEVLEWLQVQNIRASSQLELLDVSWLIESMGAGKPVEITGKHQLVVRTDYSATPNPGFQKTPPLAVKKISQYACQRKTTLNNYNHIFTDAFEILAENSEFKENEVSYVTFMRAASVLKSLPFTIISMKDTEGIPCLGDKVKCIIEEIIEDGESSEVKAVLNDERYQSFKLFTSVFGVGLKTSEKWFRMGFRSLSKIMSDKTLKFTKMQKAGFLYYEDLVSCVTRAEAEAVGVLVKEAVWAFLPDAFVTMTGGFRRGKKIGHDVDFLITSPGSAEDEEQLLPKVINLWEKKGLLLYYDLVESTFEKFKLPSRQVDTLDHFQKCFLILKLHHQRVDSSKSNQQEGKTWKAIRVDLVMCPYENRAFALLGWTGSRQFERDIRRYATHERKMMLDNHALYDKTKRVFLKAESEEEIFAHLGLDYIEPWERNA
Chain of DNA-directed DNA/RNA polymerase mu (Q9NP87 whole entry): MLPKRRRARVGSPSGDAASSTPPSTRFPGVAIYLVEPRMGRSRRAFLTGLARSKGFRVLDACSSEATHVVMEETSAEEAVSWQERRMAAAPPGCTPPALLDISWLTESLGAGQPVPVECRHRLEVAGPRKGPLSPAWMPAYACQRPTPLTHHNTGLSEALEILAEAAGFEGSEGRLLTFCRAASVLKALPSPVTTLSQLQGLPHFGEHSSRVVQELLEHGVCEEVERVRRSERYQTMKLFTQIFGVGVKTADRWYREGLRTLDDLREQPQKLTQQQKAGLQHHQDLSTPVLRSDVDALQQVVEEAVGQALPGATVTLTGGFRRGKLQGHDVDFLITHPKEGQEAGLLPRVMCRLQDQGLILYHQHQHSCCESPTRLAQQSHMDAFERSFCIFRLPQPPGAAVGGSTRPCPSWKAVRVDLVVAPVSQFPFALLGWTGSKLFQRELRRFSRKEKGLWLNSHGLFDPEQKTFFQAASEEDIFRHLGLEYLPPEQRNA

SMILES: CC[C@H](C)[C@H](NC(=O)[C@H](Cc1ccc(O)cc1)NC(=O)OC(C)(C)C)C(=O)Nc1cccc2ccccc12
- Activity [1]: Non-toxic
- CC50 (HCT-116 [2]): 13.7 µM
- fold change (FC) (HCT-116 [3]): 25
- IC50 [4]: > 200 µM
- Activity (HCT-116 [5]): Active
- IC50 [6]: > 200 µM
- IC50 [7]: > 200 µM
- IC50 [8]: > 200 µM
- fold change (FC) (HCT-116 [9]): 2
- growth inhibition (GI) (HCT-116 [10]): Active
- IC50 (DNA polymerase lambda): > 200 µM
- IC50 (DNA polymerase beta): 11.5 µM
- IC50 (DNA polymerase kappa): > 200 µM
- Activity (HCT-116 [11]): Active
- growth inhibition (GI) (HCT-116 [12]): Active
